This test deals with SARS-CoV-2 RdRp (Severe acute respiratory syndrome coronavirus 2, UniProt P0DTD1). As to the kind of experiment: biochemical. Format: binding. Conditions: for koff: read-out: kdis.
Setting [1] is: KD, BLI, 1:1 binding model, compounds 3.125–100 μmol/L.
The mark [2] stands for this setting: BLI, 1:1 binding model, compounds 3.125–100 μmol/L.

Where two headings read alike, the source gives them in different places.

By kon is commonly meant the rate constant with which the complex forms. Higher therefore signals faster complex formation. Broadly, the Kd is the concentration at which binding is half-saturated. Low readings indicate higher affinity, high ones lower affinity.

Take `C[C@@H]1O[C@@H](O[C@@H]2[C@@H](O)[C@H](OCCc3ccc(O)c(O)c3)O[C@H](CO)[C@H]2OC(=O)/C=C/c2ccc(O)c(O)c2)[C@H](O)[C@H](O)[C@H]1O` [RAI-S-11, Verbascoside]: the kon worked out at 108 M⁻¹ s⁻¹ and the koff was 9.05e-05 s⁻¹. Besides, the Kd under setting [1] turned out to be 0.84 ± 0.85 µM.

For `COc1cc(C(=O)NS(=O)(=O)c2ccccc2C)ccc1Cc1cn(C)c2ccc(NC(=O)OC3CCCC3)cc12` [RAI-S-19, Zafirlukast], the kon is 8.43 M⁻¹ s⁻¹ and the koff came out at 4.99 s⁻¹. This compound yielded a Kd under setting [1] of more than 1000 µM.

`O=C(Nc1nc(-c2ccc(O)c(O)c2)c(-c2ccccc2)s1)c1ccc(O)c(O)c1` [RAI-S-34, COH29] yielded a Kd of more than 1000 µM, a kdis of 0.189 s⁻¹ and a kon of 8.10 M⁻¹ s⁻¹.

Consider `CC1(C)CC[C@]2(C(=O)O)CC[C@]3(C)C(=CC[C@@H]4[C@@]5(C)CCC(=O)C(C)(C)[C@@H]5CC[C@]43C)[C@@H]2C1` [RAI-S-35, Oleanonic Acid], for which the kon turned out to be 98.4 M⁻¹ s⁻¹ and the koff was determined as 0.0168 s⁻¹. Further, under setting [1], the Kd is 171 ± 35.9 µM.

For `C[C@@H]1O[C@@H](OC[C@H]2O[C@@H](OCCc3ccc(O)c(O)c3)[C@H](O)[C@@H](O)[C@@H]2OC(=O)/C=C/c2ccc(O)c(O)c2)[C@H](O)[C@H](O)[C@H]1O` [RAI-S-36, Forsythoside A], the Kd is less than 50 µM under setting [2] and 1.16 ± 0.44 µM (BLI, 1:1 binding model, compounds 3.125–100 μmol/L, listed as 36). Where the note is “BLI, association rate constant”, this compound returned a kon of 137 M⁻¹ s⁻¹. The kdis (BLI, dissociation rate constant) worked out at 0.000159 s⁻¹.

On to `O=C(O[C@@H]1O[C@@H]2COC(=O)c3cc(O)c(O)c(O)c3-c3c(cc(O)c(O)c3O)C(=O)O[C@H]([C@H]1O)[C@@H]2O)c1cc(O)c(O)c(O)c1` [RAI-S-37, Corilagin], for which the kon worked out at 496 M⁻¹ s⁻¹ and the koff stood at 0.000268 s⁻¹. For the same compound, the Kd under setting [1] amounted to 0.54 ± 0.01 µM.

On to `C[C@@H]1O[C@@H](OC[C@H]2O[C@@H](Oc3cc(O)c4c(=O)cc(-c5ccc(O)cc5)oc4c3)[C@H](O[C@@H]3O[C@@H](C)[C@H](O)[C@@H](O)[C@H]3O)[C@@H](O)[C@@H]2O)[C@H](O)[C@H](O)[C@H]1O` [RAI-S-38, Ligustroflavone], for which the KD result under setting [2] was “did not detect the binding”.

Consider `Cc1ccc(Oc2nc3cc(-c4ccc(-c5ccccc5)cc4)c(Cl)cc3[nH]2)cc1C(=O)O` [RAI-S-45, MK-3903], for which binding was characterised by a dissociation constant (Kd) of 220 ± 19.4 µM, the kdis was found to be 0.0665 s⁻¹ and the kon came to 302 M⁻¹ s⁻¹.

Take `O=C(O)CCc1cc(C(=O)c2ccc(OC3CCCC3)cc2O)ccc1OCc1ccc2c(=O)[nH]oc2c1` [RAI-S-47, T-5224]: the Kd came to 38.7 ± 1.63 µM, the kdis amounted to 0.00774 s⁻¹ and the kon was determined as 200 M⁻¹ s⁻¹.

These data come from PMC7883726 (Acta Pharmaceutica Sinica. B, 2021).
